US5399575A, “Pyridine compounds which have useful pharmaceutical activity” (Boehringer Mannheim GmbH, priority 1990, dated 1995)

Test system: passive sensitised guinea pig lung parenchyma strips
Test: Inhibition of the antigen-caused constriction of passive sensitised guinea pig lung parenchyma strips in vitro (organ bath)
Type: cell-based
Conditions: Cavia porcellus; concentration 10 μM; ovalbumin-caused constriction, 20 min pre-incubation at 37° C.; % reduction of constriction amplitude vs untreated control constrictions; read-out: superfusion inhibition (%)
Experimental: Inhibition of the antigen-caused constriction of passive sensitised guinea pig lung parenchyma strips in vitro (organ bath)
For the in vitro investigation of the compounds according to the invention, the inhibition of the antigen-caused constriction of passive sensitised guinea pig lung parenchyma strips was measured, as described in the following:
Pribright white guinea pigs were stunned by a neck blow and exsanguinated. The lungs were rinsed substantially free of blood in situ with Krebs buffer, pH 7.4.
Subsequently, the lungs were removed, cut up into strips (about 20×4×4 mm) and the strips passively sensitised for one hour at room temperature with a 1:50 dilution of a homologous anti-ovalbumin antiserum and then washed 1× with Krebs buffer.
The antiserum was previously produced according to DAVIES in guinea pigs of the same strain by repeated injection of ovalbumin (2×crystallised) with addition of complete Freund's adjuvant.
Until its use, the antiserum was stored at -18° C. undiluted.
Subsequently, the lung strips were suspended individually on an isometric measurement sensor with an initial tension of 1.2 g.
Thereafter, the baths were filled with Krebs buffer and continously gassed at 37° C. with O2 (95%) and CO2 (5%). The constrictions of the lung strips were recorded on a recorder via an amplifier.
After 30 minutes acclimatisation phase, histamine control spasms were produced for the recognition of the reaction ability of the organ pieces, washed, subsequently the test substance pre-incubated at 37° C. for 20 minutes and thereafter the ovalbumin-caused constriction initiated.
The inhibition actions of the compounds according to the invention were expressed as percentage reduction of the constriction amplitude of the "samples with test substance" in relationship to the "untreated control constrictions".

Compound | inhibition at 10 µM
O=C(O)c1ccccc1SCCCCOc1ccc(C=Cc2ccncc2)cc1 [Example 12, 2-{4-{4-[2-(4-Pyridinyl)-ethenyl]-phenoxy}-butylthio}-benzoic acid] | 42%
O=C(O)c1ccccc1SCCCOc1ccc(CCc2ccncc2)cc1 [Example 14, 2-{3-{4-[2-(4-Pyridinyl)-ethyl]-phenoxy}-propylthio}-benzoic acid] | 56%
C(=Cc1ccc(OCCCCc2nnn[nH]2)cc1)c1ccncc1 [Example 15, 5-{4-{4-[2-(4-Pyridinyl)-ethenyl]-phenoxy}butyl}-1H-tetrazole] | 56%
O=C(CCCOc1ccc(CCc2ccncc2)cc1)Nc1nnn[nH]1 [Example 18b] | 32%
O=C(CCCCOc1ccccc1C=Cc1ccccn1)Nc1nnn[nH]1 [Example 18c, 5-{2-[2-(2-pyridinyl)-ethenyl]-phenoxy}-valeric acid N-(1H-tetrazol-5-yl)-amide] | 33%
O=C(CCCCOc1ccccc1CCc1ccccn1)Nc1nnn[nH]1 [Example 18h, 5-{2-[2-(2-pyridinyl)-ethyl]-phenoxy}-valeric acid N-(1H-tetrazol-5-yl)-amide] | 53%
